From paper PMC5674125, “Towards eco-friendly crop protection: natural deep eutectic solvents and defensive secondary metabolites” (Phytochemistry Reviews, 2017)
Where two headings read alike, the source gives them in different places. Each block holds one compound with its values, some of them ahead of it.

Tests used:
[1] = tested on: Liriomyza trifolii; set-up: method as in Kashiwagi et al. (2005); details: 4.90 µg/cm^2; ref Kashiwagi et al. (2005); cited from earlier work
[2] = tested on: Coptotermes formosanus; set-up: method as in Adfa et al. (2010); details: 5 µmol; ref Adfa et al. (2010); cited from earlier work
[3] = tested on: Spilarctia obliqua; set-up: method as in Tripathi et al. (2011); details: 250 µg/g, compared with azadirachtin; ref Tripathi et al. (2011); cited from earlier work
[4] = tested on: Plutella xylostella; set-up: method as in Peterson et al. (2003); details: ref Peterson et al. (2003); cited from earlier work
[5] = tested on: Anopheles arabiensis; set-up: method as in Narayanaswamy et al. (2014); details: 100 µg/ml; ref Narayanaswamy et al. (2014); cited from earlier work
[6] = tested on: Zygogramma exclamationis; set-up: method as in Olson and Roseland (1991); details: topical application of 100 µg/ml; ref Olson and Roseland (1991); cited from earlier work
[7] = tested on: Sitobion avanae; set-up: method as in Leszczynski et al. (1995); details: ref Leszczynski et al. (1995), cited from earlier work
[8] = tested on: Phyllotreta cruciferae; set-up: method as in Onyilagha et al. (2012); details: 1 month old flea beetle, binary feeding bioassay; ref Onyilagha et al. (2012); cited from earlier work
[9] = tested on: Anticarsia gemmatalis; set-up: method as in Salvador et al. (2010); details: 0.65% (mg/ml); ref Salvador et al. (2010); cited from earlier work
[10] = Solubility in natural deep eutectic solvents (saturated solutions, UV-VIS); type: physicochemical
Protocol: As an extension of these studies, we have investigated the solubility of six insecticidal metabolites in a variety of NADES. The solvent selection framework consisted of the following steps: • Preliminary solvent screening: a pre-selected set of 20 NADES was used as a starting point to identify and rank potential NADES candidates (Table 3). Selection constraints were imposed on important properties such as viscosity and stability.
• Secondary screening: solubility tests were performed to determine the best solvent for each of the metabolites. Saturated solutions, generated by adding an excess amount of each compound to different NADES, were kept under constant stirring (1100 rpm) for 24 h at 50 °C. The 20 candidates were ranked in decreasing order of solvent power. • Solubility verification: For the verification of solubilities, samples were centrifuged for 5 min at 2000 rpm and subsequently diluted suitably with methanol for spectrophotometric analysis (UV-1800 UV–VIS spectrophotometer, Shimadzu Europe GmbH, Duisburg, Germany).

[11] = tested on: Spodoptera litura; details: 0.7–0.8 µg/ml; ref Mallikarjuna et al. (2004); cited from earlier work
[12] = cited from earlier work
[13] = tested on: Helicoverpa zea; set-up: method as in Simmonds (2003); details: 10^−3 M; ref Simmonds (2003); cited from earlier work
[14] = tested on: Helicoverpa armigera; set-up: method as in Simmonds (2003); details: 10^−3 M; ref Simmonds (2003); cited from earlier work
[15] = tested on: Spodoptera litura; set-up: method as in Jadhav et al. (2012); details: 1 µg/ml; ref Jadhav et al. (2012); cited from earlier work
[16] = tested on: Lymantria dispar; set-up: method as in Beninger and Abou-Zaid (1997); details: 0.05%, day 15; ref Beninger and Abou-Zaid (1997); cited from earlier work
[17] = tested on: Acanthoscelides obtectus; set-up: method as in Regnault-Roger et al. (2004); details: adults, ref Regnault-Roger et al. (2004), cited from earlier work
[18] = tested on: Helicoverpa armigera; set-up: method as in Jadhav et al. (2012); details: 1 µg/ml; ref Jadhav et al. (2012); cited from earlier work
[19] = tested on: Frankliniella occidentalis; set-up: method as in Leiss et al. (2013); details: 25% of natural plant concentrations (0.53 mg/g); ref Leiss et al. (2013); cited from earlier work
[20] = tested on: Choristoneura fumiferana; set-up: method as in Grant and Langevin (2002); details: ref Grant and Langevin (2002), cited from earlier work
[21] = tested on: Delia radicum; set-up: method as in Jones et al. (1988); details: 10 mM in buffered solution; ref Jones et al. (1988); cited from earlier work
[22] = tested on: Etiella zinckenella; set-up: method as in Hattori et al. (1992); details: 0.5 mg; ref Hattori et al. (1992); cited from earlier work
[23] = tested on: Dalbulus maidis; set-up: method as in Dowd and Vega (1996); details: adults, 400 ppm, in vitro bioassay; ref Dowd and Vega (1996); cited from earlier work
[24] = tested on: Mamestra configurata; set-up: method as in Onyilagha et al. (2004); details: applied at concentration > endogenous levels, 0.05–0.45 µmol per leaf disk, choice feeding assay; ref Onyilagha et al. (2004); cited from earlier work
[25] = tested on: Sitobion avanae; set-up: method as in Chrzanowski et al. (2012); details: ref Chrzanowski et al. (2012); cited from earlier work
[26] = tested on: Sitodiplosis mosellana; set-up: method as in Ding et al. (2000); details: constitutive levels exceeding 0.35 µg/g fresh weight (1.57 µg/g dry weight); ref Ding et al. (2000); cited from earlier work
[27] = tested on: Helicoverpa zea; set-up: method as in Summers and Felton (1994); details: 4 mM, ref Summers and Felton (1994), cited from earlier work
[28] = tested on: Helicoverpa armigera; set-up: method as in Joshi et al. (2014); details: ref Joshi et al. (2014), cited from earlier work
[29] = tested on: Spodoptera exigua; set-up: method as in Cipollini et al. (2008); details: individual compound in diet plugs; ref Cipollini et al. (2008); cited from earlier work
[30] = tested on: Acyrthosiphon pisum; set-up: method as in Goławska and Łukasik (2012); details: 100 µg cm^−3; ref Goławska and Łukasik (2012); cited from earlier work

SMILES: O=c1cc(-c2ccc(O)c(O)c2)oc2cc(O[C@@H]3O[C@H](CO)[C@@H](O)[C@H](O)[C@H]3O[C@@H]3OCC(O)(CO)[C@H]3O)cc(O)c12 (stereo partly drawn) [Luteolin 7-O-β -D-apiofranosyl-(1→2)-β-D-glucopyranoside]
- Ovipositional deterrence [1]: Ovipositional deterrent at 4.90 µg/cm^2

SMILES: COc1cc2ccc(=O)oc2cc1O [Scopoletin]
- Termicidal and antifeedant effects [2]: Termicidal and antifeedant effects at 5 µmol
- Antifeedant and growth inhibitory activity [3]: Antifeedant and growth inhibitor. At 250 µg/g deterrence and growth inhibition was similar to that of azadirachtin
- Antibiosis (growth inhibitor), concentration in diet [4]: > 2500 µg/g diet
- LD50 [4]: ~8300 µg/mL
- Repellent activity [5]: Repellent activity at 100 µg/ml
- Feeding deterrence (preference) [6]: Phytoalexin: feeding deterrent. Topical application of 100 µg/ml reduces preference
- Phloem sap ingestion ([7]; 2.5 mM): Reduced ingestion of phloem sap at 2.5 mM

SMILES: C[C@@H]1O[C@@H](OC[C@H]2O[C@@H](Oc3c(-c4ccc(O)c(O)c4)oc4cc(O)cc(O)c4c3=O)[C@H](O)[C@@H](O)[C@@H]2O)[C@H](O)[C@H](O)[C@H]1O [Rutin]
- Feeding deterrence [8]: Feeding deterrent of 1 month old flea beetle (binary feeding bioassay)
- Larval development, amount of food consumed, pupal weight [9]: Larval development, amount of food consumed, and pupal weight were negatively influenced at 0.65% (mg/ml)
- Solubility ([10]; 1,2-propanediol: choline chloride: water (1:1:3), water 20.04%, 24 h at 50 °C, mean ± SD, n = 3): 18.46 ± 0.67 mg/g
- Solubility increase compared to water ([10]; PCH (1:1:3) versus water (Tables 2, 4)): fivefold
- Development [11]: Developmental retardation
- Larval mortality [11]: > 60%
- Solubility in NADES diluted with water ([12]; diluted with 5–10% of water, ref Dai et al. (2013)): higher solubility
- Solubility in NADES compared to aqueous solubility ([12]; ref Dai et al. (2013, 2015)): significantly increased
- Feeding deterrence [13]: Feeding deterrent at 10^−3 M
- Feeding deterrence [14]: Feeding deterrent at 10^−3 M
- Larval development, pupal mortality, adult malformation [15]: Larval development arrested, increased pupal mortality and malformation of adults at 1 µg/ml
- Larval weight reduction [16]: Larval growth inhibitor. Larval weight reduced by 45% at 0.05% at day 15
- Knockdown effect (mobility and mortality) ([17]; in vitro bioassay): Knockdown effect in bioassay: reduced mobility and increased mortality of adults
- Feeding and larval growth [18]: Cessation of feeding inhibits larval growth (1 µg/ml)

SMILES: COc1cc(/C=C/C(=O)O)cc(OC)c1O [Sinapic acid]
- Solubility [10]: 21.59 ± 0.24 mg/g
- Solubility enhancement with NADES compared to aqueous solubility [10]: > 34 fold
- Mortality of first instar larvae [19]: Significant increase in mortality of first instar larvae at 25% of natural plant concentrations (0.53 mg/g)
- Oviposition deterrence ([20]; 78.6 nmol/cm^2): Oviposition deterrent at 78.6 nmol/cm^2
- Reduction of number of eggs (oviposition deterrent) [21]: Oviposition deterrent; 10 mM in buffered solution reduced number of eggs by 60–70%
- Phloem sap ingestion ([7]; 2.5 mM): Reduced ingestion of phloem sap at 2.5 mM

SMILES: O=C(O)C=Cc1ccc(O)cc1 [p-Coumaric acid]
- Oviposition deterrence [22]: Oviposition deterrent at 0.5 mg
- Antifeedant activity [23]: Antifeedant activity in adults at 400 ppm (in vitro bioassay)
- Phloem sap ingestion ([7]; concentration not given): Reduction ingestion of phloem sap

SMILES: O=c1c(O[C@@H]2O[C@H](CO)[C@@H](O)[C@H](O)[C@H]2O)c(-c2ccc(O)cc2)oc2cc(O[C@@H]3O[C@H](CO)[C@@H](O)[C@H](O)[C@H]3O)cc(O)c12 [Kaempferol-3,7-diglucoside]
- Feeding deterrence [24]: Kaempferol-3,7-diglucoside acts as feeding deterrent when applied at concentration > endogenous levels; 0.05–0.45 µmol per leaf disk (choice feeding assay)

SMILES: COc1cc(/C=C/C(=O)O)ccc1O [Ferulic acid]
- Reproductive period and daily fecundity [25]: Prolonged reproductive period and reduced daily fecundity
- Oviposition deterrence ([20]; 7.8 nmol/cm^2, dual choice bioassay): Oviposition deterrent 7.8 nmol/cm^2 (dual choice bioassay)
- Knockdown effect (mobility and mortality) ([17]; day 8, in vitro bioassay): Knockdown effect: reduced mobility and increased mortality of adults at day 8 (in vitro bioassay)
- Mortality of newly hatched larvae [26]: Constitutive levels exceeding 0.35 µg/g fresh weight (1.57 µg/g dry weight) increased mortality of newly hatched larvae
- Antifeedant activity [23]: Antifeedant activity in adults at 400 ppm (in vitro bioassay)
- Sieve element salvation ([7]; 2.5 mM): Reduced sieve element salvation at 2.5 mM

SMILES: O=C(O)/C=C/c1ccc(O)c(O)c1 [Caffeic acid]
- Prooxidant effect on midgut proteins ([27]; chronic exposure): oxidative stress in midgut proteins
- Development rate, survivorship and pupal weight [27]: Development rate, survivorship and pupal weight negatively influenced
- Body weight and survival ([28]; range of 50–200 ppm): Body weight and survival significantly reduced
- Mode of action [28]: Protease inhibitor
- Knockdown effect (mobility and mortality) ([17]; in vitro bioassay): Knockdown effect: reduced mobility and increased mortality in adults (in vitro bioassay)
- Phloem sap ingestion ([7]; 2.5 mM): Reduction of phloem sap ingestion at 2.5 mM

SMILES: O=c1cc(-c2ccc(O)c(O)c2)oc2cc(O[C@@H]3O[C@H](CO)[C@@H](O)[C@H](O)[C@H]3O)cc(O)c12 [Luteolin-7-glucoside]
- Knockdown effect (mobility and mortality) ([17]; in vitro bioassay): Toxin: knockdown effect: reduced mobility and increased mortality

- Solubility ([10]; 1,2-propanediol: choline chloride: water (1:1:1), water 7.71%, 24 h at 50 °C, mean ± SD, n = 3): 13.08 ± 0.86 mg/g
- Solubility enhancement with NADES compared to aqueous solubility ([10]; NADES of Table 4 versus water (Table 2)): > 95 fold
SMILES: O=c1cc(-c2ccc(O)c(O)c2)oc2cc(O)cc(O)c12 [Luteolin]
- Anti-herbivory activity [29]: no anti-herbivory activity was observed
- Feeding [29]: marginally stimulating feeding
- Probing and feeding deterrence [30]: Probing and feeding deterrent at 100 µg cm^−3
- Mortality of first instar larvae [19]: Significant increase in mortality of first instar larvae at 25% of natural plant concentrations (0.53 mg/g)
